Assay results from ChEMBL document CHEMBL1201862, “PubChem BioAssay data set” (2004).
Several values for one entry are separate records, joined by “and”; a condition that tells them apart may be missing. Equal values may be shown once.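 Grown in 96-well plates, cells were treated for 48 hours with each compound at five concentrations. Insufficient inhibition: endpoint recorded as highest concentration tested. Abbreviation: GI50, concentration required for 50% inhibition of growth.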 Activity calls are given as the source filed them. Rule as the data show it: active = GI50 up to about 1.1 µM and inactive = higher.

How the values were obtained:
Test in all cases: NCI-60 cell line screen, 48 h
[1] = tested on: K562
[2] = tested on: SK-OV-3
[3] = tested on: HOP-62
[4] = tested on: COLO 205
[5] = tested on: SNB-78
[6] = tested on: XF498
[7] = tested on: SNB-75
[8] = tested on: A549
[9] = tested on: SN12C
[10] = tested on: LXFL 529
[11] = tested on: EKVX
[12] = tested on: NCI-H226
[13] = tested on: OVCAR-4
[14] = tested on: RXF 631
[15] = tested on: UACC-62
[16] = tested on: LOX IMVI
[17] = tested on: HCT-15
[18] = tested on: HOP-18
[19] = tested on: A498
[20] = tested on: DLD-1
[21] = tested on: SF-268
[22] = tested on: Malme-3M
[23] = tested on: MOLT-4
[24] = tested on: OVCAR-8
[25] = tested on: NCI-H460
[26] = tested on: HOP-92
[27] = tested on: IGROV-1
[28] = tested on: KM12
[29] = tested on: SF-295
[30] = tested on: RPMI-8226
[31] = tested on: SF-539
[32] = tested on: 786-0
[33] = tested on: RXF 393
[34] = tested on: NCI-H522
[35] = tested on: TK-10
[36] = tested on: UO-31
[37] = tested on: U-251
[38] = tested on: SR
[39] = tested on: SK-MEL-2
[40] = tested on: NCI-H23
[41] = tested on: HT-29
[42] = tested on: M14
[43] = tested on: SNB-19
[44] = tested on: M19-MEL
[45] = tested on: HCT-116
[46] = tested on: OVCAR-3
[47] = tested on: ACHN
[48] = tested on: HL-60
[49] = tested on: CCRF-CEM
[50] = tested on: KM-20L2
[51] = tested on: SK-MEL-5
[52] = tested on: CAKI-1
[53] = tested on: SW-620
[54] = tested on: UACC-257
[55] = tested on: OVCAR-5
[56] = tested on: SK-MEL-28
[57] = tested on: HCC 2998
[58] = tested on: DMS-114

Q: `C/C=C(/CCC1NCCc2c1[nH]c1ccccc21)[Si](C)(C)C` (stereo unspecified) was tested. Which GI50 [1] did it give?
A: 29.2 µM (inactive) and 2.49 µM (inactive)

Q: What about the GI50 [2] of the same molecule?
A: 13.4 µM (inactive)

Q: And the GI50 [3]?
A: 13.5 µM (inactive)

Q: And the GI50 [4]?
A: 1.94 µM (inactive)

Q: And the GI50 [5]?
A: 11.6 µM (inactive)

Q: And the GI50 [6]?
A: 74.3 µM (inactive) and 1.73 µM (inactive)

Q: And the GI50 [7]?
A: 95.3 µM (inactive) and 6.17 µM (inactive)

Q: And the GI50 [8]?
A: 14.2 µM (inactive)

Q: And the GI50 [9]?
A: 5.61 µM (inactive)

Q: And the GI50 [10]?
A: 1.85 µM (inactive)

Q: And the GI50 [11]?
A: 7.85 µM (inactive)

Q: What about the GI50 [12] of the same molecule?
A: 13.8 µM (inactive)

Q: What about the GI50 [13] of the same molecule?
A: 81.7 µM (inactive) and 4.11 µM (inactive)

Q: And the GI50 [14]?
A: 58.5 µM (inactive) and 6.87 µM (inactive)

Q: What about the GI50 [15] of the same molecule?
A: 78.9 µM (inactive) and 12.8 µM (inactive)

Q: What about the GI50 [16] of the same molecule?
A: 4.42 µM (inactive)

Q: What about the GI50 [17] of the same molecule?
A: 6.27 µM

Q: And the GI50 [18]?
A: 11.9 µM (inactive)

Q: And the GI50 [19]?
A: 19.2 µM (inactive) and 11.3 µM (inactive)

Q: What about the GI50 [20] of the same molecule?
A: 8.3 µM (inactive)

Q: And the GI50 [21]?
A: 10.9 µM (inactive)

Q: And the GI50 [22]?
A: 33.3 µM (inactive) and 1.78 µM (inactive)

Q: And the GI50 [23]?
A: 37.2 µM (inactive) and 2.37 µM (inactive)

Q: What about the GI50 [24] of the same molecule?
A: 8.97 µM (inactive)

Q: `C/C(=N/NC(=O)c1ccccc1S(N)(=O)=O)C(CN1CCCCC1)C(C1=C(O)C2C=CC=CC2OC1=O)c1ccccc1` (stereo unspecified) was tested. Which GI50 [25] did it give?
A: 77.4 µM (inactive)

Q: And the GI50 [26]?
A: 14 µM (inactive)

Q: What about the GI50 [1] of the same molecule?
A: 43.6 µM (inactive)

Q: And the GI50 [2]?
A: > 100 µM (inactive)

Q: And the GI50 [3]?
A: > 100 µM (inactive)

Q: What about the GI50 [27] of the same molecule?
A: > 100 µM (inactive)

Q: What about the GI50 [28] of the same molecule?
A: 97.3 µM (inactive)

Q: What about the GI50 [29] of the same molecule?
A: 57.8 µM (inactive)

Q: What about the GI50 [4] of the same molecule?
A: 18.6 µM (inactive)

Q: What about the GI50 [30] of the same molecule?
A: 25.5 µM (inactive)

Q: What about the GI50 [31] of the same molecule?
A: > 100 µM (inactive)

Q: What about the GI50 [32] of the same molecule?
A: > 100 µM (inactive)

Q: And the GI50 [5]?
A: > 100 µM (inactive)

Q: What about the GI50 [6] of the same molecule?
A: > 100 µM (inactive)

Q: What about the GI50 [33] of the same molecule?
A: 28.4 µM (inactive)

Q: And the GI50 [34]?
A: 52.7 µM (inactive)

Q: And the GI50 [7]?
A: > 100 µM (inactive)

Q: And the GI50 [35]?
A: > 100 µM (inactive)

Q: And the GI50 [8]?
A: 91.2 µM (inactive)

Q: What about the GI50 [36] of the same molecule?
A: 74.5 µM (inactive)

Q: And the GI50 [37]?
A: 89.1 µM (inactive)

Q: And the GI50 [38]?
A: 23.7 µM (inactive)

Q: And the GI50 [39]?
A: 59.2 µM (inactive)

Q: What about the GI50 [40] of the same molecule?
A: > 100 µM (inactive)

Q: What about the GI50 [41] of the same molecule?
A: 83.9 µM (inactive)

Q: What about the GI50 [9] of the same molecule?
A: 78.7 µM (inactive)

Q: What about the GI50 [10] of the same molecule?
A: 96.6 µM (inactive)

Q: What about the GI50 [11] of the same molecule?
A: > 100 µM (inactive)

Q: What about the GI50 [42] of the same molecule?
A: 78.3 µM (inactive)

Q: What about the GI50 [12] of the same molecule?
A: 90.2 µM (inactive)

Q: What about the GI50 [13] of the same molecule?
A: 67.1 µM (inactive)

Q: What about the GI50 [14] of the same molecule?
A: > 100 µM (inactive)

Q: What about the GI50 [15] of the same molecule?
A: 82.6 µM (inactive)

Q: What about the GI50 [16] of the same molecule?
A: 74.5 µM (inactive)

Q: What about the GI50 [17] of the same molecule?
A: 49.9 µM

Q: And the GI50 [18]?
A: 87.1 µM (inactive)

Q: And the GI50 [19]?
A: > 100 µM (inactive)

Q: And the GI50 [43]?
A: 87.7 µM (inactive)

Q: And the GI50 [44]?
A: 47.6 µM (inactive)

Q: And the GI50 [45]?
A: > 100 µM (inactive)

Q: And the GI50 [20]?
A: > 100 µM (inactive)

Q: What about the GI50 [46] of the same molecule?
A: 41.6 µM (inactive)

Q: And the GI50 [47]?
A: 61.7 µM (inactive)

Q: And the GI50 [21]?
A: 58.5 µM (inactive)

Q: What about the GI50 [48] of the same molecule?
A: 23.4 µM (inactive)

Q: What about the GI50 [49] of the same molecule?
A: 21.9 µM (inactive)

Q: What about the GI50 [50] of the same molecule?
A: > 100 µM (inactive)

Q: And the GI50 [51]?
A: 56.9 µM (inactive)

Q: And the GI50 [52]?
A: > 100 µM (inactive)

Q: And the GI50 [53]?
A: 31.8 µM (inactive)

Q: What about the GI50 [54] of the same molecule?
A: 95.7 µM (inactive)

Q: What about the GI50 [22] of the same molecule?
A: 62.7 µM (inactive)

Q: And the GI50 [55]?
A: > 100 µM (inactive)

Q: What about the GI50 [24] of the same molecule?
A: > 100 µM (inactive)

Q: What does the source list for `COc1ccc(Br)c(CN2CCc3ccccc32)c1OS(=O)(=O)c1ccc(C)cc1`?
A: GI50 [26]: 18 µM (inactive); GI50 [1]: 4.75 µM (inactive); GI50 [28]: 7.66 µM (inactive); GI50 [29]: 19.5 µM (inactive); GI50 [4]: 11.9 µM (inactive); GI50 [30]: 26.3 µM (inactive); GI50 [31]: 15.6 µM (inactive); GI50 [32]: 23.7 µM (inactive); GI50 [5]: 23.3 µM (inactive); GI50 [6]: 12.4 µM (inactive); GI50 [33]: 8.67 µM (inactive); GI50 [34]: 4.39 µM (inactive); GI50 [7]: 19.2 µM (inactive); GI50 [56]: 46 µM (inactive); GI50 [35]: 8.02 µM (inactive); GI50 [8]: 8.17 µM (inactive); GI50 [36]: 51.2 µM (inactive); GI50 [38]: 43.7 µM (inactive); GI50 [39]: 21.8 µM (inactive); GI50 [40]: 23.9 µM (inactive); GI50 [9]: 76 µM (inactive); GI50 [11]: 58.7 µM (inactive); GI50 [42]: 13.9 µM (inactive); GI50 [12]: > 100 µM (inactive); GI50 [14]: 34.4 µM (inactive); GI50 [17]: 25.1 µM; GI50 [18]: > 100 µM (inactive); GI50 [43]: 42.5 µM (inactive); GI50 [44]: 4.03 µM (inactive); GI50 [20]: 15.3 µM (inactive); GI50 [46]: 5.07 µM (inactive); GI50 [57]: 6.31 µM (inactive); GI50 [47]: 14.7 µM (inactive); GI50 [21]: 23.7 µM (inactive); GI50 [48]: 5.15 µM (inactive); GI50 [49]: 21.4 µM (inactive); GI50 [53]: 16.3 µM (inactive); GI50 [54]: 48.2 µM (inactive); GI50 [58]: 18.3 µM (inactive); GI50 [22]: 45.2 µM (inactive); GI50 [23]: 29.3 µM (inactive); GI50 [55]: > 100 µM (inactive); GI50 [24]: 47.5 µM (inactive)
